Results reported in ChEMBL document CHEMBL1129258, “Synthesis and structure-activity relationships of 2-pyridones: a novel series of potent DNA gyrase inhibitors as antibacterial agents” (J Med Chem, 1996).
In brackets after ≈: the same amount, converted by molar mass.

Tests used:
[1] = molecular target: T1, DNA gyrase (Escherichia coli) (UniProt P0AES6+P0AES4); assay: In vitro antibacterial activity against gram-negative organism […] ATCC 13048; format: functional; settings: Enterobacter aerogenes
[2] = molecular target: T1, DNA gyrase (Escherichia coli); settings: Escherichia coli K-12
Description: Concentration which causes 50% of the gyrase (Escherichia coli H560)-mediated maximal DNA cleavage.

[3] = molecular target: T1, DNA gyrase (Escherichia coli); assay: In vitro antibacterial activity against gram-negative organism Klebsiella pneumoniae ATCC 8045; format: functional
Enterococcus faecalis = assay: Inhibitory activity against enterococcus faecalis Van B; format: functional
[4] = molecular target: T1, DNA gyrase (Escherichia coli); assay: In vitro antibacterial activity against gram-positive organism Enterococcus faecium ATCC 8043; format: functional
Enterococcus faecium = assay: Inhibitory activity against enterococcus faecium Van A; format: functional
[5] = molecular target: T2, DNA gyrase (Staphylococcus aureus) (UniProt P0A0K8+P20831); assay: In vitro antibacterial activity against gram-positive organism Staphylococcus aureus ATCC 6538p; format: functional
[6] = molecular target: T2, DNA gyrase (Staphylococcus aureus); assay: In vitro antibacterial activity against gram-positive organism Staphylococcus aureus NCTC-10649M; format: functional
Streptococcus pyogenes = assay: In vitro antibacterial activity against gram-positive organism Streptococcus pyogenes EES61; format: functional; settings: Streptococcus pyogenes; read-out: MIC
[7] = molecular target: T2, DNA gyrase (Staphylococcus aureus); assay: In vitro antibacterial activity against gram-positive organism Staphylococcus aureus 1775; format: functional
[8] = molecular target: T1, DNA gyrase (Escherichia coli); assay: In vitro antibacterial activity against gram-positive organism Streptococcus bovis A-5169; format: functional; settings: Streptococcus equinus
[9] = molecular target: T1, DNA gyrase (Escherichia coli); assay: In vitro antibacterial activity against gram-negative organism Prov. stuartii CMX-640; format: functional; settings: Providencia stuartii
[10] = In vitro antibacterial activity against gram-negative organism Pseudomonas aeruginosa DPHD-2862; format: functional; settings: Pseudomonas aeruginosa; read-out: MIC
[11] = molecular target: T1, DNA gyrase (Escherichia coli); assay: In vitro antibacterial against gram-negative organism Escherichia coli JUHL; format: functional; settings: Escherichia coli K-12
[12] = In vitro antibacterial activity against gram-negative organism Pseudomonas aeruginosa 5007; format: functional; settings: Pseudomonas aeruginosa; read-out: MIC
[13] = molecular target: T2, DNA gyrase (Staphylococcus aureus); assay: In vivo efficacy against Staphylococcus aureus NCTC-10649M after oral administration; format: functional, organism-based
[14] = In vivo efficacy against Pseudomonas aeruginosa 5007 after subcutaneous administration; format: functional; settings: Pseudomonas aeruginosa, sc; read-out: ED50
Streptococcus pneumoniae [15] = assay: (§1) In vivo efficacy against Strep. administration; format: functional
[16] = molecular target: T1, DNA gyrase (Escherichia coli); assay: In vivo efficacy against Escherichia coli JUHL after oral administration; format: functional, organism-based; settings: Escherichia coli K-12
Pseudomonas aeruginosa = assay: In vivo efficacy against Pseudomonas aeruginosa 5007 following p.o. administration.
[17] = molecular target: T1, DNA gyrase (Escherichia coli); assay: In vivo efficacy against Escherichia coli JUHL by subcutaneous administration; format: functional, organism-based; settings: Escherichia coli K-12
[18] = molecular target: T2, DNA gyrase (Staphylococcus aureus); assay: In vivo efficacy against Staphylococcus aureus NCTC-10649M after subcutaneous administration; format: functional, organism-based
Streptococcus pneumoniae [19] = assay: In vivo efficacy against Strep. administered; format: functional
physchem = settings: phosphate buffer, pH 7.4
Description: Aqueous solubility in pH 7.4 phosphate buffer (0.05 M) at 37 degree C

Streptococcus pneumoniae [20] = assay: as §1; format: functional; remark: listed apart in the source
Escherichia coli = assay: In vivo efficacy against Escherichia coli JUHL by orally administered.; format: functional; settings: po

MIC [1] [µg/mL]	MIC [3] [µg/mL]	MIC [4] [µg/mL]	MIC [5] [µg/mL]	MIC [6] [µg/mL]	MIC (Streptococcus pyogenes) [µg/mL]	MIC [7] [µg/mL]	MIC [8] [µg/mL]	MIC [9] [µg/mL]	MIC [10] [µg/mL]	MIC [11] [µg/mL]	MIC [12] [µg/mL]	ED50 [13] [mg/kg]	ED50 (Pseudomonas aeruginosa) [mg/kg]	ED50 [18] [mg/kg]	SMILES	CC50 [2] [µg/mL]	MIC (Enterococcus faecalis) [µg/mL]	MIC (Enterococcus faecium) [µg/mL]	ED50 [14] [mg/kg]	ED50 (Streptococcus pneumoniae [15]) [mg/kg]	other results
												3	68.8	2.8	CC(NC(=O)C(C)NC1CCN(c2nc3c(-c4ccc(F)cc4F)cc(C(=O)O)c(=O)n3cc2F)C1)C(=O)O (stereo not drawn)				14.8	49.7	ED50 (Streptococcus pneumoniae [15]; Streptococcus pneumoniae, read-out: ED50): 140 mg/kg; ED50 [16]: 14.3 mg/kg; solubility (physchem): 1000 µg/mL (≈ 1830 µM); ED50 [17]: < 2.5 mg/kg
0.1 (≈ 0.289 µM)	0.01 (≈ 0.0289 µM)	0.05 (≈ 0.144 µM)	0.005 (≈ 0.0144 µM)	0.005 (≈ 0.0144 µM)		0.39 (≈ 1.13 µM)	0.1 (≈ 0.289 µM)	0.39 (≈ 1.13 µM)	3.1 (≈ 8.95 µM)	0.02 (≈ 0.0577 µM)	0.39 (≈ 1.13 µM)	5.3		1.5	Cc1c(N2CC[C@H](O)C2)c(F)cn2c(=O)c(C(=O)O)cc(C3CC3)c12					> 10	ED50 (Streptococcus pneumoniae [20]): > 2 mg/kg
0.02 (≈ 0.0556 µM)	0.005 (≈ 0.0139 µM)	0.1 (≈ 0.278 µM)	0.02 (≈ 0.0556 µM)	0.02 (≈ 0.0556 µM)	0.05 (≈ 0.139 µM)	1.56 (≈ 4.34 µM)	0.1 (≈ 0.278 µM)	0.39 (≈ 1.09 µM)	1.56 (≈ 4.34 µM)	0.005 (≈ 0.0139 µM)	0.2 (≈ 0.556 µM)	< 3.1	7.2	0.9	CNC1CCN(c2c(F)cn3c(=O)c(C(=O)O)cc(C4CC4)c3c2C)C1 (stereo not drawn)	0.08 (≈ 0.223 µM)	0.06 (≈ 0.167 µM)	0.5 (≈ 1.39 µM)	2.8		ED50 [17]: 0.7 mg/kg; ED50 (Escherichia coli): 1.1 mg/kg

The next lines start with the compound.

SMILES	MIC [1] [µg/mL]	MIC [3] [µg/mL]	MIC [4] [µg/mL]	MIC [5] [µg/mL]	MIC [6] [µg/mL]	MIC (Streptococcus pyogenes) [µg/mL]	MIC [7] [µg/mL]	MIC [8] [µg/mL]	MIC [9] [µg/mL]	MIC [10] [µg/mL]	MIC [11] [µg/mL]	MIC [12] [µg/mL]	ED50 [13] [mg/kg]	ED50 (Pseudomonas aeruginosa) [mg/kg]	ED50 [18] [mg/kg]	CC50 [2] [µg/mL]	MIC (Enterococcus faecalis) [µg/mL]	MIC (Enterococcus faecium) [µg/mL]	ED50 [14] [mg/kg]	ED50 (Streptococcus pneumoniae [15]) [mg/kg]	other results
Cc1c(N2CCC(CN)C2)c(F)cn2c(=O)c(C(=O)O)cc(C3CC3)c12 (stereo not drawn)	0.01 (≈ 0.0278 µM)	0.005 (≈ 0.0139 µM)	0.01 (≈ 0.0278 µM)	0.002 (≈ 0.00556 µM)	0.002 (≈ 0.00556 µM)	0.002 (≈ 0.00556 µM)	0.39 (≈ 1.09 µM)	0.002 (≈ 0.00556 µM)	0.39 (≈ 1.09 µM)	1.56 (≈ 4.34 µM)	0.005 (≈ 0.0139 µM)	0.1 (≈ 0.278 µM)				0.05 (≈ 0.139 µM)	0.015 (≈ 0.0417 µM)	0.03 (≈ 0.0835 µM)			
Cc1c(N2C[C@@H](C)N[C@@H](C)C2)c(F)cn2c(=O)c(C(=O)O)cc(C3CC3)c12	0.1 (≈ 0.268 µM)	0.02 (≈ 0.0536 µM)	0.39 (≈ 1.04 µM)	0.1 (≈ 0.268 µM)	0.1 (≈ 0.268 µM)	0.39 (≈ 1.04 µM)	6.2 (≈ 16.6 µM)	0.78 (≈ 2.09 µM)	3.1 (≈ 8.3 µM)	12.5 (≈ 33.5 µM)	0.02 (≈ 0.0536 µM)	1.56 (≈ 4.18 µM)	4.8	12.7	4.4	1.8 (≈ 4.82 µM)			> 8	49.4	ED50 [16]: 2.1 mg/kg; ED50 [17]: 1.3 mg/kg; ED50 (Streptococcus pneumoniae [19]): > 8 mg/kg
Cl.O=C(O)c1cn(C2CC2)c2cc(N3CCNCC3)c(F)cc2c1=O [CIPROFLOXACIN HYDROCHLORIDE]				0.2	0.39		> 100										1	4			
Cc1c(N2C[C@@H]3[C@@H](N)[C@@H]3C2)c(F)cn2c(=O)c(C(=O)O)cc(C3CC3)c12	0.02 (≈ 0.056 µM)	0.01 (≈ 0.028 µM)	0.1 (≈ 0.28 µM)	0.02 (≈ 0.056 µM)	0.02 (≈ 0.056 µM)	0.1 (≈ 0.28 µM)	1.56 (≈ 4.37 µM)	0.1 (≈ 0.28 µM)	0.78 (≈ 2.18 µM)	6.2 (≈ 17.3 µM)	0.01 (≈ 0.028 µM)	0.2 (≈ 0.56 µM)	14.6	> 50	4.1	0.3 (≈ 0.839 µM)			18	6.7	ED50 [16]: > 10 mg/kg; ED50 [17]: 1.4 mg/kg
CN[C@H](CC(C)C)C(=O)N[C@H]1C(=O)N[C@@H](CC(N)=O)C(=O)N[C@H]2C(=O)N[C@H]3C(=O)N[C@H](C(=O)N[C@H](C(=O)O)c4cc(O)cc(O)c4-c4cc3ccc4O)[C@H](O)c3ccc(c(Cl)c3)Oc3cc2cc(c3O[C@@H]2O[C@H](CO)[C@@H](O)[C@H](O)[C@H]2O[C@H]2C[C@](C)(N)[C@H](O)[C@H](C)O2)Oc2ccc(cc2Cl)[C@H]1O [VANCOMYCIN]																	32 (≈ 22.1 µM)	> 128			
